From ChEMBL document CHEMBL1158376, “Azadirachtin, a scientific gold mine” (Bioorg Med Chem, 2009)

How the values were obtained:
Drosophila melanogaster [1] = test: Antiproliferative activity against Drosophila melanogaster Kc167 cells after 48 hrs; assay type: functional
Drosophila melanogaster [2] = test: Induction of nuclear damage in Drosophila melanogaster Kc167 cells after 6 hrs; assay type: functional
[3] = Toxicity in rat; assay type: organism-based; conditions: in vivo

C/C=C(\C)C(=O)O[C@H]1C[C@@H](OC(C)=O)[C@@]2(C(=O)OC)CO[C@H]3[C@@H](O)[C@@](C)([C@]45O[C@@]4(C)[C@@H]4C[C@H]5O[C@@H]5OC=C[C@@]54O)[C@H]4[C@]1(CO[C@]4(O)C(=O)OC)[C@@H]32 [AZADIRACHTIN A]
inhibition (Drosophila melanogaster [1]): Dose-dependent effect
inhibition (Drosophila melanogaster [2]): Dose-dependent effect
LD50 [3]: > 3540 mg/kg
